For two compounds, Ki results are on record in BindingDB's records for doi:10.1111/j.1476-5381.1995.tb13240.x (Smithkline Beecham Pharmaceuticals, 1995).

Experiment [1] concerns the target T1, 5-hydroxytryptamine receptor 2C (Homo sapiens, UniProt P28335).
T1 sequence (P28335 whole entry): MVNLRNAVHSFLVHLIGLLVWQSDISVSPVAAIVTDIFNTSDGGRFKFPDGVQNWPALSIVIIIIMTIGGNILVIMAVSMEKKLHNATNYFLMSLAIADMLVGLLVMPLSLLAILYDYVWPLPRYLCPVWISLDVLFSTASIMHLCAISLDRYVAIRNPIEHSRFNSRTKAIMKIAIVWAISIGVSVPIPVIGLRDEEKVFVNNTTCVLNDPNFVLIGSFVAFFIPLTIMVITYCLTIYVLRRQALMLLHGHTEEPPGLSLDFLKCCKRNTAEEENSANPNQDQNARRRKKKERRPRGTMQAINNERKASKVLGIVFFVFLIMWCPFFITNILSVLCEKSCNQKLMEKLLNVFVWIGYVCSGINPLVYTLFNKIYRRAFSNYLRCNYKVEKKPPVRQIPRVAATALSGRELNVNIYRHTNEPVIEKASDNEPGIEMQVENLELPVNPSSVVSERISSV

For experiment [2], the target named is 5-hydroxytryptamine receptor 2B (Rattus norvegicus, UniProt P30994).
The target of experiment [3] is T2, 5-hydroxytryptamine receptor 2C (Rattus norvegicus, UniProt P08909).
T2 sequence (P08909 whole entry): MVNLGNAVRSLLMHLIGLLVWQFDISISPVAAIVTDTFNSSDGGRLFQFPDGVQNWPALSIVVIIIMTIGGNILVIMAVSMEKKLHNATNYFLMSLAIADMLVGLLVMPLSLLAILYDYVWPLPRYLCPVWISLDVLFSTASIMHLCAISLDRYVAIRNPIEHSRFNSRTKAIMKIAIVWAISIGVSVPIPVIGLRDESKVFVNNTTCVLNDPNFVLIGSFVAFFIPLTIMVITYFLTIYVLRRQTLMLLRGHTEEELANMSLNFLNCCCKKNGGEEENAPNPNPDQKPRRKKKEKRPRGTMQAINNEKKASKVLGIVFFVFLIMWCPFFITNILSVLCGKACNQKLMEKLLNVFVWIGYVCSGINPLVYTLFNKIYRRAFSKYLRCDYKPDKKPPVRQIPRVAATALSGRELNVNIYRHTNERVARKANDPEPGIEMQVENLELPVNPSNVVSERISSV

pKi: −log10 of the molar value.

Sequence of 5-hydroxytryptamine receptor 2B (P30994 whole entry): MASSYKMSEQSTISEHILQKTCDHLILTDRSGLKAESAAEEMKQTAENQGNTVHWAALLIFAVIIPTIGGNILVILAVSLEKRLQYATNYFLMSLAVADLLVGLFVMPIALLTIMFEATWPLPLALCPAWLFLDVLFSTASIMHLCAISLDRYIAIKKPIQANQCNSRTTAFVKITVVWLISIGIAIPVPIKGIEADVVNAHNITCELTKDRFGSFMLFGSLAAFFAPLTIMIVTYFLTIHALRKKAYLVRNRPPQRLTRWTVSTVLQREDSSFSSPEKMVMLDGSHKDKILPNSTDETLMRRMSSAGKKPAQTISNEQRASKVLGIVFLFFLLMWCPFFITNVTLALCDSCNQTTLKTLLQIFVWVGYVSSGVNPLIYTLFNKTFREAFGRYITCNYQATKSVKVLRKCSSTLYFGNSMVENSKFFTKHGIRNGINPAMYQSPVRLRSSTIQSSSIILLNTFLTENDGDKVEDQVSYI

The term pKi denotes −log10 of the Ki, conventionally taken in molar units. Read a low pKi as a large Ki. For `CC(N)Cc1c[nH]c2ccc(OCc3cccs3)cc12` (stereo not drawn) [NSC_5311036], the pKi in experiment [1] is 6.50; in experiment [2] it was 7.90. `COC(=O)[C@@H]1[C@H]2C[C@H]3c4[nH]c5ccccc5c4CCN3C[C@@H]2CC[C@@H]1O` [yohimbic acid methyl ester]: the pKi in experiment [3] was 5.30.
